The results in this text go back to US4178456A, “Prostenoic acids and esters” (American Cyanamid Company, priority 1977, dated 1979).

Molecules are shown by their SMILES. Some results are limits rather than exact numbers.

Test [1] deals with adenosine diphosphate induced platelet aggregation. Put plainly: Inhibition of Platelet Aggregation-In Vitro, adenosine diphosphate induced. Set-up: key: (-): Inhibition; (+): No Inhibition. Type of test: cell-based, human. From the text:
(§1) It is well known that platelet aggregation inhibitors may be useful as anti-thrombotic drugs. Inhibition of platelet aggregation can be conveniently measured in vitro by monitoring changes in optical density and/or light transmission in platelet rich plasma upon addition of suitable aggregating agents such as adenosine diphosphate, epinephrine, thrombin or collagen. Alternatively, platelet aggregation can be measured in vitro using platelet rich plasma obtained at various time intervales from animals given inhibitors by an oral or parenteral route.
(§2) Human […] is incubated with modified Tyrode's solution in a proportion of 40-50% human […]. The test compounds are added at varying concentrations and after 5 minutes incubation, an aggregating agent such as adenosine diphosphate or collagen is added. The change in optical density (light transmission) is monitored by eye and inhibition is recorded as a (-) or lack of inhibition is recorded as a (+). Test compounds are considered active if they inhibit adenosine diphosphate or collagen induced aggregation at a concentration of 25 mcg/ml or less within 5-10 minutes.

Test [2] deals with collagen induced platelet aggregation. Kind of test: Inhibition of Platelet Aggregation-In Vitro, collagen induced. Type of test: cell-based, human. Set-up: key: (-): Inhibition; (+): No Inhibition.
Source text: as §1, §2

For test [3], the system named is bronchospasms elicited by histamine. Put plainly: Bronchodilator Activity (Konzett procedure), histamine. Type of test: in vivo, guinea pigs. The conditions noted are these: Cavia porcellus; three logarithmic cumulative intravenous doses. The method, then: (§3) Bronchodilator activity is determined in guinea pigs against bronchospasms elicited by intravenous injections of 5-hydroxytryptamine, histamine or acetylcholine by the Konzett procedure. [See J. Lulling, P. Lievens, F. El Sayed and J. Prignot, Arzeneimittel-Forschung, 18, 995 (1968).] In Table D, bronchodilator activity for representative compounds of this invention against one or more of the three spasmogenic agents is expressed as an ED50 determined from the results obtained with three logarithmic cumulative intravenous doses.

For test [4], the system named is mean arterial blood pressure. Put plainly: Hypotensive Activity in anesthetized rats. Type of test: in vivo, Male Wistar strain rats. The note with it: dose 2.1 mg/kg, intravenous (jugular) infusion over one minute, 4 animals, urethane anesthesia. How it is done: This procedure is a modification of the technique described by Pike, et al., Prostaglandins, Nobel Symposium 2, Stockholm, June, 1966, pg. 165.
Male Wistar strain rats (Royal Hart Farms) averaging approximately 250 g in weight are fastened to rat boards in a supine position by means of canvas vests and limb ties. The animals are anesthetized with a 900 mg/kg intraperitoneal dose of urethane. The left carotid artery is cannulated with polyethylene 50 tubing to measure arterial blood pressure and the left external jugular vein is cannulated with polyethylene 50 tubing for drug infusion. The animals are allowed to equilibrate for 15-30 minutes. The test compound is infused in 0.5 ml of saline, over a one minute period, at the indicated dose level, using a Harvard model 940 infusion pump and a 6 cc syringe at speed 5. Each drug dose is flushed with 0.4 ml of saline. The mean arterial blood pressure is measured before and after drug administration using a Statham model P23Db pressure transducer and a Brush model 260 recorder. The percent depression in mean arterial blood pressure and the duration of at least a 10% depression induced by representative compounds of this invention are recorded in Table C.

Test [5] relates to bronchospasms elicited by 5-hydroxytryptamine. Put plainly: Bronchodilator Activity (Konzett procedure), 5-hydroxytryptamine. Type of test: in vivo, guinea pigs. The note with it: Cavia porcellus; three logarithmic cumulative intravenous doses. How it is done: as §3
For test [6], the system named is bronchospasms elicited by acetylcholine. Kind of test: Bronchodilator Activity (Konzett procedure), acetylcholine. Type of test: in vivo, guinea pigs. The conditions noted are these: Cavia porcellus; three logarithmic cumulative intravenous doses. How it is done: as §3

Consider `O=C(O)CCC/C=C\C[C@@H]1[C@@H](/C=C/C2(O)CCCCC2)[C@H](O)C[C@@H]1O` (relative stereo) [nat(and ent)-9α,11α,15-Trihydroxy-15,16-tetramethylene-17,18,19,20-tetranor-13-trans-5-cis-prostadienoic Acid], for which the “Inhibition of Platelet Aggregation, Adenosine Diphosphate” value in test [1] (drug concentration 0.25 ug/ml) is reported as “(+)”; in test [1] (drug concentration 2.5 ug/ml), “(+)”; in test [1] (drug concentration 25 ug/ml) it was “(+)”; in test [1] (drug concentration 250 ug/ml), “(-)”. Moreover, the “Inhibition of Platelet Aggregation, Collagen” value was “(+)” in test [2] (drug concentration 0.25 ug/ml), “(+)” in test [2] (drug concentration 2.5 ug/ml), “(-)” in test [2] (drug concentration 25 ug/ml) and “(-)” in test [2] (drug concentration 250 ug/ml).

In general, ED50 refers to the midpoint of the dose-response relation. As for `O=C(O)CCCC=CCC1C(O)CC(=O)C1C=CC1(O)CCCCC1` (stereo not drawn) [nat(and ent)-9α,15-Dihydroxy-11-oxo-15,16-tetramethylene-17,18,19,20-tetranor-5-cis-13-trans-prostadienoic Acid], the figures for the ED50 in test [3], in test [5] and in test [6] were above 3.2 µg/kg, 0.253 µg/kg and above 3.2 µg/kg, respectively. In addition, the “Duration in Minutes of at Least 10% Depression” value in test [4] is above 20 min. In test [4], the “Percent Depression of Mean Arterial Blood Pressure” value is recorded as -29%. The “Inhibition of Platelet Aggregation, Adenosine Diphosphate” value in test [1] (drug concentration 25 ug/ml) and in test [1] (drug concentration 250 ug/ml) was “(-)” each time. Moreover, the “Inhibition of Platelet Aggregation, Collagen” value is listed as “(+)” in test [2] (drug concentration 0.25 ug/ml), “(-)” in test [2] (drug concentration 2.5 ug/ml), “(-)” in test [2] (drug concentration 25 ug/ml) and “(-)” in test [2] (drug concentration 250 ug/ml).
